Assay results published in PMC12731232, “Microbial Biotransformation of the Sesquiterpene Carotol: Generation of Hydroxylated Metabolites with Potential Cytotoxic and Target-Specific Binding Activities” (Biomolecules, 2025).
≈ marks a conversion by molar mass, not a printed value.

Tests used:
[1] = system: HCT-116 (colon carcinoma); assay: MTT cell viability assay, HCT-116; conditions: for IC50: Homo sapiens, HCT-116, 24 h, read-out: Cytotoxic activity IC50 ± SD; for Selectivity index (SI): SI = CC50(MRC-5)/IC50(HCT-116)
Protocol: (§1) The assay was conducted at the Regional Center for Mycology and Biotechnology, Al-Azhar University, Cairo, Egypt.
(§2) Cancer and normal cells were seeded into 96-well plates at a density of 5 × 10^4 cells per well and incubated for 24 h prior to treatment. Test compounds, dissolved in 0.5% DMSO, were added in triplicate at twelve different concentrations. Vehicle controls (media only or media containing 0.5% DMSO) were included. After a 24 h incubation period, cell viability was assessed via the MTT assay.
(§3) Briefly, the media were replaced with 100 µL of fresh RPMI-1640 medium, followed by the addition of 10 µL of a 12 mM MTT stock solution (5 mg/mL in PBS) to each well, including untreated controls. Plates were incubated at 37 °C in a 5% CO2 atmosphere for 4 h. Subsequently, 85 µL of medium was removed from each well, and 50 µL of DMSO was added to dissolve the resulting formazan crystals. The plates were thoroughly mixed and incubated for an additional 10 min at 37 °C. Absorbance was measured at 590 nm using a microplate reader (SunRise, TECAN Inc., Morrisville, NC, USA). Cell viability percentages were calculated, and IC50 values (µM) were determined from dose–response curves using GraphPad Prism 10 software (San Diego, CA, USA) [38].

[2] = in vitro; conditions: human
Protocol: as §1, §2, §3

[3] = system: MCF-7 (breast carcinoma); assay: MTT cell viability assay, MCF-7; conditions: for IC50: Homo sapiens, MCF7, 24 h, read-out: Cytotoxic activity IC50 ± SD; for Selectivity index (SI): SI = CC50(MRC-5)/IC50(MCF-7)
Protocol: as §1, §2, §3

[4] = system: A-549 (lung carcinoma); assay: MTT cell viability assay, A-549; conditions: for IC50: Homo sapiens, A549, 24 h, read-out: Cytotoxic activity IC50 ± SD; for Selectivity index (SI): SI = CC50(MRC-5)/IC50(A-549)
Protocol: as §1, §2, §3

[5] = system: HepG-2 (hepatocellular carcinoma); assay: MTT cell viability assay, HepG-2; conditions: for IC50: Homo sapiens, HepG2, 24 h, read-out: Cytotoxic activity IC50 ± SD; for Selectivity index (SI): SI = CC50(MRC-5)/IC50(HepG-2)
Protocol: as §1, §2, §3

[6] = MTT cell viability assay, MRC-5; conditions: human, MRC-5 normal lung fibroblasts
Protocol: as §1, §2, §3

[7] = system: human hypopharyngeal squamous cell carcinoma cells (FaDu); set-up: method as in doi:10.1016/j.indcrop.2016.08.001; conditions: cited from earlier work
[8] = system: green monkey kidney epithelial cells (VERO); set-up: method as in doi:10.1016/j.indcrop.2016.08.001; conditions: cited from earlier work
[9] = Substrate control stability in sterile fermentation medium; type: physicochemical; conditions: without microorganisms
Protocol: Control groups included a substrate control, in which sterile medium containing carotol (5 mg/100 µL DMF) was incubated without microorganisms. […] Culture controls consisted of microorganisms grown under identical conditions to the screening cultures but without carotol. After two weeks of incubation, all cultures were harvested and analyzed by thin-layer chromatography.

Structure (SMILES) | IC50 [1] [µM] | Selectivity index (SI) [1] | IC50 at 24 h [2] [µM] | IC50 [3] [µM] | Selectivity index (SI) [3] | IC50 [4] [µM] | Selectivity index (SI) [4] | IC50 [5] [µM] | Selectivity index (SI) [5] | IC50 at 24 h [6] [µM] | IC50 [7] [µg/mL] | IC50 [8] [µg/mL] | Stability of substrate control ([9]; 5 °C, two weeks) | Stability of substrate control ([9]; room temperature (25–30 °C))
CC(C)(O)[C@H]1[C@@H](O)C[C@]2(C)C[C@H](O)[C@]3(C)CC[C@]12O3 [CM2, 9α,13-dihydroxydaucol] | 181 ± 9.95 | 1.37 | 248 ± 11.2 | 213 ± 13.7 | 1.16 | 138 ± 9.2 | 1.79 | 154 ± 9.39 | 1.60 | – | – | – | – | –
CC(C)[C@H]1CC[C@]2(C)C[C@H](O)[C@@](C)(O)CC[C@]12O [CM3] | 226 ± 11 | 1.40 | 316 ± 15.2 | 242 ± 15.7 | 1.31 | 205 ± 10.6 | 1.54 | 196 ± 10.6 | 1.62 | – | – | – | – | –
COc1cccc2c1C(=O)c1c(O)c3c(c(O)c1C2=O)C[C@@](O)(C(=O)CO)C[C@@H]3O[C@H]1C[C@H](N)[C@H](O)[C@H](C)O1 [Doxorubicin, doxorubicin, reference compound] | 2.99 ± 0.22 | 14.66 | – | 3.07 ± 0.18 | 14.31 | 3.31 ± 0.26 | – | 1.27 ± 0.2 | 34.62 | 44 ± 3.24 | – | – | – | –
CC(C)C1C(O)CC2(C)CC(O)C3(C)CCC12O3 (stereo not drawn) [CM1, 9α-hydroxydaucol] | 339 ± 15.6 | 1.37 | 466 ± 20.3 | 401 ± 20.3 | 1.16 | 225 ± 13.4 | 2.07 | 221 ± 12.3 | 2.11 | – | – | – | – | –
CC1=CC[C@@]2(C)CC[C@H](C(C)C)[C@@]2(O)CC1 [Carotol] | 25.7 ± 0.53 | 6.85 | 176 ± 10.9 | 68.4 ± 6.04 | 2.57 | 28.7 ± 2.75 | 6.14 | 52.3 ± 4.23 | 3.36 | – | 38.3 (≈ 172 µM) | 39.7 (≈ 179 µM) | remained fully stable | slight decomposition
